Data as given in US20250152591A1, “TREATMENT OF HEMATOLOGICAL MALIGNANCIES WITH MENIN INHIBITORS AND P-GLYCOPROTEIN INHIBITORS” (Kura Oncology, Inc., priority 2022, published 2025).

Target: T1, Menin (Homo sapiens, UniProt O00255)
T1 sequence (O00255 1-610): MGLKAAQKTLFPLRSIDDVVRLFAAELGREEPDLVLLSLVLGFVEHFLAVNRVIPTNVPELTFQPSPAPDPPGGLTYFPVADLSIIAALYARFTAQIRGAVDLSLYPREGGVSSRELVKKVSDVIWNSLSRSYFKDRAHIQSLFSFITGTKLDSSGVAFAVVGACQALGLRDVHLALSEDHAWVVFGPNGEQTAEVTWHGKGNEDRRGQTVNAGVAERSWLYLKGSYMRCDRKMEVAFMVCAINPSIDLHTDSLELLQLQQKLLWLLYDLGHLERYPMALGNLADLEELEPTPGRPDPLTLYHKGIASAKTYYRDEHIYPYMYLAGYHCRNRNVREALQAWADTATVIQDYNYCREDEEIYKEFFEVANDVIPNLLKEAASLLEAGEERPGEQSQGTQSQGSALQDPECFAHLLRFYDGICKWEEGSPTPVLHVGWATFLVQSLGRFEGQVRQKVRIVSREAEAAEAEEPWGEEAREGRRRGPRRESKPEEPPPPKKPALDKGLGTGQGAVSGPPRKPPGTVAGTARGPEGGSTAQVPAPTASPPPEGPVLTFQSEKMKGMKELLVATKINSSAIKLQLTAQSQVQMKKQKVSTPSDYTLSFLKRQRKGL
Assay: Menin binding, fluorescence polarization assay
Settings: fluorescence polarization assay analogous to WO2017/161028, Example 6
Protocol: Menin binding was evaluated using an assay analogous to the fluorescence polarization assay described in PCT Publ. No. WO2017/161028, Example 6.

| IC50 | Structure (SMILES) |
| --- | --- |
| 36.2 nM | Cc1c(CN2CCC(Nc3nc(N)nc4sc(CC(F)(F)F)cc34)CC2)ccc2c1cc(C#N)n2C[C@H](C)N1CCN(S(C)(=O)=O)CC1 [Compound IA] |
| 63.5 nM | CNc1nc(NC2CCN(Cc3ccc4c(cc(C#N)n4C[C@H](C)N4CCN(S(C)(=O)=O)CC4)c3C)CC2)c2cc([C@@H](O)C(F)(F)F)sc2n1 [Compound IB, 4-methyl-5-((4-((2-(methylamino)-6-((S)-2,2,2-trifluoro-1-hydroxyethyl)thieno[2,3-d]pyrimidin-4-yl)amino)piperidin-1-yl)methyl)-1-((S)-2-(4-(methylsulfonyl)piperazin-1-yl)propyl)-1H-indole-2-carbonitrile] |
| 401 nM | CNc1nc(NC2CCN(Cc3ccc4c(cc(C#N)n4C[C@H](C)N4CCN(S(C)(=O)=O)CC4)c3C)CC2)c2cc([C@H](O)C(F)(F)F)sc2n1 [Compound IC, 4-methyl-5-((4-((2-(methylamino)-6-((R)-2,2,2-trifluoro-1-hydroxyethyl)thieno[2,3-d]pyrimidin-4-yl)amino)piperidin-1-yl)methyl)-1-((S)-2-(4-(methylsulfonyl)piperazin-1-yl)propyl)-1H-indole-2-carbonitrile] |
